Data on 2 molecules can be found in publication PMC4433244, “Interaction of cCMP with the cGK, cAK and MAPK Kinases in Murine Tissues” (PLoS ONE, 2015).

Assay [1] addresses T1, cGKII (Mus musculus, UniProt Q61410).
T1 construct: gene Prkg2; recombinant murine cGKII expressed in SF9 cells
T1 sequence (Q61410 2-762): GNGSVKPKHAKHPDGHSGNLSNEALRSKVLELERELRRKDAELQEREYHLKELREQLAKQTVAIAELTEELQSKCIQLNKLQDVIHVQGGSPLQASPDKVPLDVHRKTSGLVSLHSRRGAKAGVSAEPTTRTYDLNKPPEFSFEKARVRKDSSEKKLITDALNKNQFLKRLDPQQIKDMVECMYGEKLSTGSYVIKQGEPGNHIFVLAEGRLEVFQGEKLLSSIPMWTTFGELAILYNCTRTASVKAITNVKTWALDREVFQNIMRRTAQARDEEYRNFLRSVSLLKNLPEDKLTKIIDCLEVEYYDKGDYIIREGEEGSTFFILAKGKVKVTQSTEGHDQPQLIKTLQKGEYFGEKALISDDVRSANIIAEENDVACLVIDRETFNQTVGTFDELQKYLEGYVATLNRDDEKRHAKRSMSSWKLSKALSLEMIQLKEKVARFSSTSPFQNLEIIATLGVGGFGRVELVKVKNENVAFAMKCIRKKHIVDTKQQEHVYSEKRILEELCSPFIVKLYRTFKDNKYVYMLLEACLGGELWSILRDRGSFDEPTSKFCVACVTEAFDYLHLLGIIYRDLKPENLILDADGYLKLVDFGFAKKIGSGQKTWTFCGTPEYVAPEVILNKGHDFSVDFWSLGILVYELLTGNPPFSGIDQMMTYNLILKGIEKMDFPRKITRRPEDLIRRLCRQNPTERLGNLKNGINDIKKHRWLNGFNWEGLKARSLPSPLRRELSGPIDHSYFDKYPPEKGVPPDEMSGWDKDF
Description: (γ-32P) ATP kinase assay with IRAGtide, activation of purified enzyme. Format: biochemical.

For assay [2], the target named is T2, cAKRIα (Mus musculus, UniProt Q9DBC7).
T2 construct: gene Prkar1a; endogenous regulatory subunit in lung tissue lysate
In words: 4-AH-cCMP agarose affinity chromatography competed by free cCMP; mass spectrometry and immunoblot (cAKRIα/β antibody). In kind it is cell-based. Background: A western blot detects proteins with antibodies after separation by electrophoresis.

Assay [3] deals with T3, cGKI (Mus musculus, UniProt P0C605).
T3 construct: gene Prkg1

SMILES strings stand for the structures.

T2 sequence (Q9DBC7 2-381): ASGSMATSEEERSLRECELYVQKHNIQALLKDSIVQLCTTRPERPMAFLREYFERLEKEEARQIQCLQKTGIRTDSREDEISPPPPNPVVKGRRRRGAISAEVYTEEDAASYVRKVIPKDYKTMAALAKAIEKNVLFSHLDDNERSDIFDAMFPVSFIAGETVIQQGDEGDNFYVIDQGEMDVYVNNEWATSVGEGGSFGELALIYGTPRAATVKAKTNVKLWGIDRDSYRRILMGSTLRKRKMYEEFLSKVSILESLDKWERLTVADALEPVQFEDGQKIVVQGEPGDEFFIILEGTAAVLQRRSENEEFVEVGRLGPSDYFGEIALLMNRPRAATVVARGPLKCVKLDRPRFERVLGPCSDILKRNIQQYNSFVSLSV
T3 sequence (P0C605 2-671): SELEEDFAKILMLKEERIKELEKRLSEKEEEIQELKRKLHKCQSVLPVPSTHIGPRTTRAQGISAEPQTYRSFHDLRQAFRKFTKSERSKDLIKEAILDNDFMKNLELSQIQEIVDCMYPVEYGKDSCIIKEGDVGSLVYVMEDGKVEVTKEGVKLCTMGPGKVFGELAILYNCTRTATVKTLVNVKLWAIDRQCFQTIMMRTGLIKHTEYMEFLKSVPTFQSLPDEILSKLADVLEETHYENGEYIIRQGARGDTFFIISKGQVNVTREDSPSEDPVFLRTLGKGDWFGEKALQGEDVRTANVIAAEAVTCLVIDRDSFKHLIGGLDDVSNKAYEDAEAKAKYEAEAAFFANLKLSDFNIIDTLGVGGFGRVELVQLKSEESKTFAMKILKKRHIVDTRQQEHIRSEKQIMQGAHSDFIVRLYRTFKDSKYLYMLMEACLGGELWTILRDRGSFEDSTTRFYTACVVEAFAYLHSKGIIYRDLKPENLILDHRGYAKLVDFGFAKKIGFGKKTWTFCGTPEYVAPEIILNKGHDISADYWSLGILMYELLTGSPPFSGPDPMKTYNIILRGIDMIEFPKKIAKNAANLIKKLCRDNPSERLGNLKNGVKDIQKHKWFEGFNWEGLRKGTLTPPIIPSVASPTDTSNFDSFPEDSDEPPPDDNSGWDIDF

Turning to `Nc1ccn([C@@H]2O[C@@H]3COP(=O)(O)O[C@H]3[C@H]2O)c(=O)n1` [cCMP], the EC50 (in general, the concentration needed to bring the measured effect to its halfway point) in assay [1] was found to be 110 ± 8 µM. The “4-AH-cCMP agarose affinity chromatography competed by free cCMP; mass spectromet” value in assay [2] is given as “Specific binding of cCMP to cAKRIα/β was also detected”. With `Nc1nc2c(ncn2[C@@H]2O[C@@H]3COP(=O)(O)O[C@H]3[C@H]2O)c(=O)[nH]1` [cGMP], the EC50 in assay [3] amounted to 2 ± 0.5 µM.
